In PMC10247784, “Physiological activation of human and mouse bitter taste receptors by bile acids” (Communications Biology, 2023):
Where “and” joins values, the source holds several entries; their conditions need not be identical. Equal entries are not always repeated.

Target: T1, human TAS2R14 (Homo sapiens, UniProt Q9NYV8)
T1 construct: expressed in transfected cells; host or cells: HEK293T-Gα16gust44
T1 sequence (Q9NYV8 1-317): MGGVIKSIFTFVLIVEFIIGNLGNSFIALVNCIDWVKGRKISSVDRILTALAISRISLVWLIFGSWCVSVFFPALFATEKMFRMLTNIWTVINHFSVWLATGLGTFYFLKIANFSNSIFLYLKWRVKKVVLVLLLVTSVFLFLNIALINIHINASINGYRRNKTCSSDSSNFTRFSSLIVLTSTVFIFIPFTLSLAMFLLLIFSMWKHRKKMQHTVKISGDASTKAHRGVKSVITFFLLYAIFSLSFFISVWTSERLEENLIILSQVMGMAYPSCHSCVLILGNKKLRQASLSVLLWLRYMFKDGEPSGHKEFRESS
Assay: Calcium imaging assay (FLIPR), HEK293T-Gα16gust44 cells transfected with human TAS2R14
Type: cell-based
Settings: for RLU: TAS2R14 trace
Outline: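 Read-out is Fluo-4 fluorescence change (ΔF/F) after automated application of bile acids (DMSO stocks) to transiently transfected cells. Values are corrected for empty-vector cells and normalized to buffer. Dose-response from three independent experiments in duplicate; threshold concentration set at p < 0.01 versus mock.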

## C[C@H](CCC(=O)O)[C@H]1CC[C@H]2[C@@H]3[C@H](O)C[C@@H]4C[C@H](O)CC[C@]4(C)[C@H]3CC[C@]12C [Chenodeoxycholic Acid, chenodeoxycholic acid]
TAS2R14, bile acids, mean
  Efficacy = maximal amplitude (ΔF/F): 0.05441
TAS2R14, bile acids, single replicates, listed as CDCA
  Efficacy (maximal amplitude ΔF/F), individual data points: 0.0148 and 0.07816 and 0.07028
TAS2R14, conc. 0,01 mM
  Δ F/F: 0.006116
TAS2R14, conc. 0,03 mM
  Δ F/F: 0.05441
TAS2R14, conc. 0,00003 mM
  Δ F/F: -0.01882
TAS2R14, conc. 0,0001 mM
  Δ F/F: -0.01861
TAS2R14, conc. 0,0003 mM
  Δ F/F: -0.02118
TAS2R14, conc. 0,001 mM
  Δ F/F: -0.02299
TAS2R14, conc. 0,003 mM
  Δ F/F: -0.02084
Time (s) 0
  RLU: 0 RLU
Time (s) 2 (Taurocholic Acid 2.016)
  RLU: -49.1645 RLU
Time (s) 4 (Taurocholic Acid 4.016)
  RLU: -25.5098 RLU
Time (s) 6 (Taurocholic Acid 6.016)
  RLU: -14.6279 RLU
Time (s) 8 (Taurocholic Acid 8.016)
  RLU: -24.697 RLU
Time (s) 12 (Taurocholic Acid 12.016)
  RLU: -44.0879 RLU
Time (s) 14 (Taurocholic Acid 14.016)
  RLU: -37.1122 RLU
Time (s) 16 (Taurocholic Acid 16.016)
  RLU: -43.9695 RLU
Time (s) 18 (Taurocholic Acid 18.016)
  RLU: -32.8497 RLU
Time (s) 18.797 (Chenodeoxycholic Acid 18.765)
  RLU: 7.956 RLU
Time (s) 20.797 (Chenodeoxycholic Acid 20.781)
  RLU: 109.495 RLU
Time (s) 22.797 (Chenodeoxycholic Acid 22.781)
  RLU: 144.429 RLU
Time (s) 24.797 (Chenodeoxycholic Acid 24.781)
  RLU: 188.481 RLU
Time (s) 26.797 (Chenodeoxycholic Acid 26.781)
  RLU: 194.457 RLU
Time (s) 28.797 (Chenodeoxycholic Acid 28.781)
  RLU: 226.874 RLU
Time (s) 30.797 (Chenodeoxycholic Acid 30.781)
  RLU: 234.892 RLU
Time (s) 32.797 (Chenodeoxycholic Acid 32.781)
  RLU: 237.826 RLU
Time (s) 34.797 (Chenodeoxycholic Acid 34.781)
  RLU: 263.919 RLU
Time (s) 36.797 (Chenodeoxycholic Acid 36.781)
  RLU: 289.916 RLU
Time (s) 38.797 (Chenodeoxycholic Acid 38.781)
  RLU: 280.38 RLU
Time (s) 40.797 (Chenodeoxycholic Acid 40.781)
  RLU: 364.7 RLU
Time (s) 42.797 (Chenodeoxycholic Acid 42.781)
  RLU: 389.665 RLU
Time (s) 44.797 (Chenodeoxycholic Acid 44.781)
  RLU: 409.588 RLU
Time (s) 46.797 (Chenodeoxycholic Acid 46.781)
  RLU: 412.285 RLU
Time (s) 48.797 (Chenodeoxycholic Acid 48.781)
  RLU: 462.382 RLU
Time (s) 50.797 (Chenodeoxycholic Acid 50.781)
  RLU: 489.05 RLU
Time (s) 52.797 (Chenodeoxycholic Acid 52.781)
  RLU: 480.824 RLU
Time (s) 54.797 (Chenodeoxycholic Acid 54.781)
  RLU: 484 RLU
Time (s) 56.797 (Chenodeoxycholic Acid 56.781)
  RLU: 514.521 RLU
Time (s) 58.797 (Chenodeoxycholic Acid 58.781)
  RLU: 561.552 RLU
Time (s) 60.797 (Chenodeoxycholic Acid 60.781)
  RLU: 547.999 RLU
Time (s) 62.797 (Chenodeoxycholic Acid 62.781)
  RLU: 553.072 RLU
Time (s) 64.797 (Chenodeoxycholic Acid 64.781)
  RLU: 596.368 RLU
Time (s) 66.797 (Chenodeoxycholic Acid 66.781)
  RLU: 582.133 RLU
Time (s) 68.797 (Chenodeoxycholic Acid 68.781)
  RLU: 591.364 RLU
Time (s) 70.797 (Chenodeoxycholic Acid 70.781)
  RLU: 612.747 RLU
Time (s) 72.797 (Chenodeoxycholic Acid 72.781)
  RLU: 626.948 RLU
Time (s) 74.797 (Chenodeoxycholic Acid 74.781)
  RLU: 600.862 RLU
Time (s) 76.797 (Chenodeoxycholic Acid 76.781)
  RLU: 644.716 RLU
Time (s) 78.797 (Chenodeoxycholic Acid 78.781)
  RLU: 648.451 RLU
Time (s) 80.797 (Chenodeoxycholic Acid 80.781)
  RLU: 604.524 RLU
Time (s) 82.797 (Chenodeoxycholic Acid 82.781)
  RLU: 653.18 RLU
Time (s) 84.797 (Chenodeoxycholic Acid 84.781)
  RLU: 678.438 RLU
Time (s) 86.797 (Chenodeoxycholic Acid 86.781)
  RLU: 660.126 RLU
Time (s) 88.797 (Chenodeoxycholic Acid 88.781)
  RLU: 638.796 RLU
Time (s) 90.797 (Chenodeoxycholic Acid 90.781)
  RLU: 637.499 RLU
Time (s) 92.797 (Chenodeoxycholic Acid 92.781)
  RLU: 628.913 RLU
Time (s) 94.797 (Chenodeoxycholic Acid 94.781)
  RLU: 638.53 RLU
Time (s) 96.797 (Chenodeoxycholic Acid 96.781)
  RLU: 632.564 RLU
Time (s) 98.797 (Chenodeoxycholic Acid 98.781)
  RLU: 628.21 RLU
Time (s) 100.797 (Chenodeoxycholic Acid 100.781)
  RLU: 613.502 RLU
Time (s) 102.797 (Chenodeoxycholic Acid 102.781)
  RLU: 604.41 RLU
Time (s) 104.797 (Chenodeoxycholic Acid 104.781)
  RLU: 599.892 RLU
Time (s) 106.797 (Chenodeoxycholic Acid 106.781)
  RLU: 563.223 RLU
Time (s) 108.797 (Chenodeoxycholic Acid 108.781)
  RLU: 594.081 RLU
Time (s) 110.797 (Chenodeoxycholic Acid 110.781)
  RLU: 586.278 RLU
Time (s) 112.797 (Chenodeoxycholic Acid 112.781)
  RLU: 550.791 RLU
Time (s) 114.797 (Chenodeoxycholic Acid 114.781)
  RLU: 544.911 RLU
Time (s) 116.797 (Chenodeoxycholic Acid 116.781)
  RLU: 535.277 RLU
Time (s) 118.797 (Chenodeoxycholic Acid 118.781)
  RLU: 521.394 RLU
Time (s) 120.797 (Chenodeoxycholic Acid 120.781)
  RLU: 516.9 RLU
Time (s) 122.797 (Chenodeoxycholic Acid 122.781)
  RLU: 506.351 RLU
Time (s) 124.797 (Chenodeoxycholic Acid 124.781)
  RLU: 491.947 RLU
Time (s) 126.797 (Chenodeoxycholic Acid 126.781)
  RLU: 464.952 RLU
Time (s) 128.797 (Chenodeoxycholic Acid 128.781)
  RLU: 465.396 RLU
Time (s) 130.797 (Chenodeoxycholic Acid 130.781)
  RLU: 467.418 RLU
Time (s) 132.797 (Chenodeoxycholic Acid 132.781)
  RLU: 469.949 RLU
Time (s) 134.797 (Chenodeoxycholic Acid 134.781)
  RLU: 415.628 RLU
Time (s) 136.797 (Chenodeoxycholic Acid 136.781)
  RLU: 432.183 RLU
Time (s) 137.562 (Taurocholic Acid 137.563, Chenodeoxycholic Acid 137.546)
  RLU: 452.404 RLU
Time (s) 143.578 (Taurocholic Acid 143.563, Chenodeoxycholic Acid 143.546)
  RLU: 380.071 RLU
Time (s) 149.578 (Taurocholic Acid 149.563, Chenodeoxycholic Acid 149.546)
  RLU: 382.743 RLU
Time (s) 155.578 (Taurocholic Acid 155.563, Chenodeoxycholic Acid 155.546)
  RLU: 336.968 RLU
Time (s) 161.578 (Taurocholic Acid 161.563, Chenodeoxycholic Acid 161.546)
  RLU: 359.379 RLU
Time (s) 167.578 (Taurocholic Acid 167.563, Chenodeoxycholic Acid 167.546)
  RLU: 343.975 RLU
Time (s) 173.578 (Taurocholic Acid 173.563, Chenodeoxycholic Acid 173.546)
  RLU: 278.705 RLU
Time (s) 179.578 (Taurocholic Acid 179.563, Chenodeoxycholic Acid 179.546)
  RLU: 300.666 RLU
Time (s) 191.578 (Taurocholic Acid 191.563, Chenodeoxycholic Acid 191.546)
  RLU: 185.369 RLU
Time (s) 197.578 (Taurocholic Acid 197.563, Chenodeoxycholic Acid 197.546)
  RLU: 161.87 RLU
Time (s) 209.578 (Taurocholic Acid 209.563, Chenodeoxycholic Acid 209.546)
  RLU: 179.275 RLU
Time (s) 221.578 (Taurocholic Acid 221.563, Chenodeoxycholic Acid 221.546)
  RLU: 182.465 RLU
Time (s) 233.578 (Taurocholic Acid 233.563, Chenodeoxycholic Acid 233.546)
  RLU: 198.132 RLU
Time (s) 239.578 (Taurocholic Acid 239.563, Chenodeoxycholic Acid 239.546)
  RLU: 183.585 RLU
Time (s) 245.578 (Taurocholic Acid 245.563, Chenodeoxycholic Acid 245.546)
  RLU: 212.748 RLU
Time (s) 293.578 (Taurocholic Acid 293.563, Chenodeoxycholic Acid 293.546)
  RLU: 209.963 RLU
Time (s) 299.578 (Taurocholic Acid 299.563, Chenodeoxycholic Acid 299.546)
  RLU: 216.371 RLU
Time (s) 305.578 (Taurocholic Acid 305.563, Chenodeoxycholic Acid 305.546)
  RLU: 208.994 RLU
Time (s) 311.578 (Taurocholic Acid 311.563, Chenodeoxycholic Acid 311.546)
  RLU: 184.812 RLU
Time (s) 317.578 (Taurocholic Acid 317.563, Chenodeoxycholic Acid 317.546)
  RLU: 189.014 RLU
Time (s) 323.578 (Taurocholic Acid 323.563, Chenodeoxycholic Acid 323.546)
  RLU: 182.748 RLU
Time (s) 329.578 (Taurocholic Acid 329.563, Chenodeoxycholic Acid 329.546)
  RLU: 195.394 RLU
Time (s) 335.578 (Taurocholic Acid 335.563, Chenodeoxycholic Acid 335.546)
  RLU: 190.135 RLU
Time (s) 341.578 (Taurocholic Acid 341.563, Chenodeoxycholic Acid 341.546)
  RLU: 187.029 RLU
Time (s) 347.578 (Taurocholic Acid 347.563, Chenodeoxycholic Acid 347.546)
  RLU: 164.841 RLU
Time (s) 353.578 (Taurocholic Acid 353.563, Chenodeoxycholic Acid 353.546)
  RLU: 198.762 RLU
Time (s) 359.578 (Taurocholic Acid 359.563, Chenodeoxycholic Acid 359.546)
  RLU: 181.785 RLU
Lowest concentration with significantly increased fluorescence vs empty vector (p < 0.01)
  Activation threshold concentration TAS2R14: 30 µM
screening
  Receptor response TAS2R14: activated
